According to patent US10246490B2 (priority 2014, dated 2019):

Test system: HVA calcium channel (high-voltage activated calcium ion channel)
Type: cell-based, rat

COC(=O)C1=C(C)NC(C)=C(C(=O)OC)C1c1ccccc1[N+](=O)[O-] [Nifedipine]
current after loading: −734.31 pA
current before loading: −1471.35 pA
inhibition rate (10 μM): 50.09%
